Experimental data published in US20230067277A1, “ANALOGUES OF MYCOSPORINE-LIKE AMINO ACID AND USE THEREOF AS SUNSCREENS” (BASF SE, priority 2020, published 2023).

Key:
Type in all cases: physicochemical
[1] = Incorporation of UV filter into water phase of cosmetic formulation; settings: 2.00 in Formulations 1, 2 and 4; pH 7-8
Method: Formulations 1 to 4 and a Placebo formulation were manufactured as follows. Part A and part B (see Table 3) were prepared separately and heated to 75-80° C. Under increasing stirring, part B was incorporated to part A and homogenized with Ultra Turrax for 20 sec. at 11000 rpm. The mixture was let cooled down to rt under stirring and part C was added. At rt pH 7-8 was adjusted with NaOH.

[2] = Specific extinction coefficient (UV/VIS spectrophotometer); settings: for E (1%, 1 cm), maximum absorbance: d=1 cm, 250 nm to 500 nm
Method: The specific extinction coefficient of Compounds A to D was measured using a Perkin Elmer Lambda 650 UV/VIS Spectrophotometer. A stock solution of concentration c=1 mM of the UV-absorber was prepared in a 100 ml volumetric flask using either buffer or ethanol. Dilution steps followed in order to adjust the concentration, such that the extinction E at optical pathlength d=1 cm will be 1.0±0.5. UV spectrum was determined in a cuvette of an optical pathlength of d=1 cm at 250 nm to 500 nm. With the Beer-Lambert law one obtains the molar decadic extinction coefficient at any wavelength with: The respective specific extinction E %1.1 cm can be obtained via the following equation: […] where M=molecular weight of the UV-absorber. A di-sodium hydrogen phosphate/potassium dihydrogen phosphate buffer (ordering number 1.09439.1000) or ethanol (ordering number 1.00983.2511), each purchased from Merck was used.

[3] = Solubility test in cosmetic solvents and water; settings: for solubility: % m/V; for precipitation visible after: addition to the respective solvent
Method: The solubility of Compounds A to D was tested, wherein the addition of Compound A and B to the respective solvent had been stopped after 50% m/V. In case of Compound C and D, a precipitation after about 1% m/V had been visible. The respective pH-values (see Table 1) had been measured of the final solution or suspension, respectively.

[4] = Water, addition of Compound A and B stopped after 50% m/V
[5] = cosmetic solvent Cetiol Ultimate

Row | SMILES | incorporation of UV filter into the water phase in sufficiently high concentrations [1] | specific extinction coefficient / absorbance, comparison among Compounds A to D (FIG. 1) ([2]; FIG. 1) | E (1%, 1 cm), maximum absorbance ([2]; buffer pH7 (phosphate buffer)) | pH-value of the final solution or suspension ([3]; Water) | solubility [3, 4] [%] | solubility ([3]; cosmetic solvent Cetiol AB) | solubility [3, 5] | solubility ([3]; cosmetic solvent Myritol 318) | E (1%, 1 cm), maximum absorbance ([2]; in EtOH) | precipitation visible after [3]
1 | CC1=C(NCCO)CCC/C1=N\CCO.Cl [Compound B, (E)-2-hydroxy-N-(3-((2-hydroxyethyl)amino)-2-methylcyclohex-2-en-1-ylidene)ethan-1-aminium chloride] | could be incorporated into the water phase in sufficiently high concentrations | highest specific extinction coefficient | 1725 | (pH 6) | >50.0 | insoluble | insoluble | insoluble | – | –
2 | COc1ccc(/N=C2\CCC(Nc3ccc(OC)cc3)=C2C)cc1.Cc1ccc(S(=O)(=O)O)cc1 [Compound C, (E)-4-methoxy-N-(3-((4-methoxyphenyl)amino)-2-methylcyclopent-2-en-1-ylidene)benzenaminium 4-methylbenzenesulfonate] | – | – | – | (pH 7) | <1.0 | <1.2% | <1.0% | <1.0% | 737 | about 1 % m/V
3 | CC1=C(NCCOCCO)CCC/C1=N\CCOCCO.Cl [Compound A, (E)-2-(2-hydroxyethoxy)-N-(3-((2-(2-hydroxyethoxy)ethyl)amino)-2-methylcyclohex-2-en-1-ylidene)ethan-1-aminium chloride] | could be incorporated into the water phase in sufficiently high concentrations | – | 943 | (pH 6) | >50.0 | insoluble | insoluble | insoluble | – | –
4 | CC1=C(Nc2ccccc2Br)CC/C1=N\c1ccccc1Br.Cc1ccc(S(=O)(=O)O)cc1 [Compound D, (E)-2-bromo-N-(3-((2-bromophenyl)amino)-2-methylcyclopent-2-en-1-ylidene)benzenaminium 4-methylbenzenesulfonate] | not been possible to solve | – | – | (pH 7) | <1.0 | <1.2% | <1.0% | <1.0% | 659 | about 1 % m/V
